Laboratory results as given in patent US12514267B2, “Oligosaccharide compositions for use as animal feed and methods of producing thereof” (DSM Nutritional Products, LLC, priority 2015, dated 2026).

Test system: nursery pigs
Assay: Growth performance of nursery pigs: 0-42d BWG, ADG, ADFI, FCR, with and without Mecadox (Examples 34/35)
Assay type: in vivo
Protocol: Pigs: Approximately 3,240 pigs were placed in three rooms at a nursery farm with 27 pigs per pen and 15 pens per treatment using a randomized complete block design (a total of 8 treatments across 40 pens in each of 3 rooms). All pens were balanced with 14 gilts and 13 barrows. At weaning, weight, age and sow farm source were recorded. At weaning, pigs were placed with the same number of pigs from each sow farm per pen.
Allotment: Prior to allotment and each weighing event, standard weights were placed on each corner of the scale to ensure that the scale was correctly calibrated. At placement, the average weight of the pigs in each pen were determined and the data was provided as soon as possible for treatment allotment. At weaning, pens were ranked by average weight and weight blocks and pens were assigned to the ranked weights. Treatments were then randomly assigned within weight blocks. When the treatment assignments were done, pen assignments were provided also as soon as possible, and dietary treatments information was entered into the feeding system. Pigs were granted free access to feed and water throughout the trial.
Schedule: At arrival, the pigs were allotted to pens. A common pelleted diet was fed to all pigs for 7 days. This diet contained 55 ppm of Mecadox (50 g/ton). Dietary treatments were fed from day 7 to the end of the nursery phase (approximately 55 lb). Pens were allotted to dietary treatments on day 7. Diets were fed in two phases with the first phase from day 7 to 21 after weaning and the second phase from day 21 to the end of the nursery phase (day 21 to 42 after weaning).
Treatments: Dietary treatments were randomly assigned to 40 pens in each of 3 rooms for 5 replications per room and 15 replications total. The 8 treatments were structured as a 2×4 factorial with two diet types (with and without antibiotic; 55 ppm of Mecadox) and four levels of gluco-oligosaccharide (0, 200, 400 or 600 ppm). The gluco-oligosaccharides were prepared according to the procedures set forth in Examples above. The gluco-oligosaccharides were provided on a corn meal carrier, as described in Example 18, such that the 600 ppm dose was obtained with a 0.25% final diet inclusion rate (5 lb premix per ton final feed). All diets contained the same growth promoting levels of Cu and Zn at 200 ppm Cu and 2,000 ppm Zn, in the phase 2 diets and 200 ppm Cu in the phase 3 diet. The diets containing 0 and 0.25% of the premix containing the gluco-oligosaccharides were blended to form the intermediate treatments.
Diet Preparation: Diets were fed in meal form. The four diets required were the control diets for each diet type and the diets containing 0.25% gluco-oligosaccharide premix. The actual oligosaccharide levels in the test were 0, 200, 400, and 600 ppm with a carrier used such that the premix at 0.25% (5 lb/ton) will provide 600 ppm oligosaccharide.
Live Animal Data Collection: Pigs were weighed, counted and feed disappearance determined every 7 days during the experiment. Prior to each weighing event standard weights were placed on each corner of the scale to ensure proper calibration of the scale. Pig inventory, weight, removal and feed intake data were recorded and maintained throughout the trial. Data were collected on the standard data collection spreadsheet.
Statistical analysis: Pens were randomly allotted to treatments using body weight as a blocking factor. Weight block was added to the model as a random effect. Main effects and interaction between diet type and gluco-oligosaccharide level were determined. Data was analyzed for linear and quadratic effect of gluco-oligosaccharide levels.
The BWG benefit, ADG benefit, ADFI benefit, and FCR benefit were calculated for 0-42 days by taking the ratio of the respective values with respect to their corresponding controls and performing linear regression to determine the dose-effect of the gluco-oligosaccharide, resulting in the following regression equations set forth in Table 12 below. […]

[1] = 0-42d, Mecadox 55 ppm, Oligo 0 ppm
[2] = 0-42d, from regression equations, antibiotic growth promoter alone
[3] = nursery pigs, vs control, Mecadox 55 ppm, gluco-oligosaccharide 600 ppm without antibiotic (from regression)

COC(=O)N/N=C/c1c[n+]([O-])c2ccccc2[n+]1[O-] [Mecadox]
ADFI [1]: 1.37 lbs/day
ADG [1]: 0.93 lbs/day
BWG [1]: 40.69 lbs
FCR [1]: 1.47 lbs/lbs
ADFI Benefit [2]: 2.4%
ADG Benefit [2]: 3.2%
BWG Benefit [2]: 2.5%
FCR Benefit [2]: −0.2%
0-42d FCR (nursery pigs, vs control, Mecadox 55 ppm, gluco-oligosaccharide 600 ppm): did not improve
improved 0-42d ADG [3]: 3.2%
improved 0-42d ADGI [3]: 2.4%
improved 0-42d BWG [3]: 2.5%
